Article PMC6374029 (Antiviral Research, 2018)

What was measured:
[1] = system: EBOV minigenome; format: cell-based, Ebola virus
[2] = human, in vivo; cited from earlier work
[3] = in vitro; details: human
[4] = system: Ebola virus; details: in vivo; cited from earlier work
[5] = system: Huh7 cells

## COc1c(C)c2c(c(O)c1C/C=C(\C)CCC(=O)O)C(=O)OC2 [mycophenolic acid]
[1]
  activity of EBOV minigenome (firefly luciferase normalized to renilla): effectively blocked the signal from the minigenome

## CCNCc1cc(Nc2ccnc3cc(Cl)ccc23)ccc1O [desethyl-amodiaquine]
[2]
  half-life: 220 to 432 h

## CCN(CC)Cc1cc(Nc2ccnc3cc(Cl)ccc23)ccc1O [Amodiaquine, amodiaquine]
[3]
  CC50: 79 µM
[4]
  case mortality: 50%
[5]
  Selectivity index: 37
